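How tested: cells in 96-well plates exposed to compound for 48 hours at five concentrations. At the GI50, growth is halved.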 Active and inactive are the calls of the source. Cut-off read from the data, not from the text of the source: active = GI50 up to about 1.1 µM and inactive = higher.
How the values were obtained:
Assay in all cases: NCI-60 cell line screen, 48 h
UACC-62 = test system: UACC-62
HOP-92 = test system: HOP-92
EKVX = test system: EKVX
786-0 = test system: 786-0
IGROV-1 = test system: IGROV-1
HCT-116 = test system: HCT-116
HCT-15 = test system: HCT-15
NCI-H460 = test system: NCI-H460
RPMI-8226 = test system: RPMI-8226
LXFL 529 = test system: LXFL 529
OVCAR-4 = test system: OVCAR-4
SF-295 = test system: SF-295
HOP-62 = test system: HOP-62
SK-MEL-28 = test system: SK-MEL-28
SF-539 = test system: SF-539
A498 = test system: A498
SNB-19 = test system: SNB-19
DU-145 = test system: DU-145
MDA-MB-231 = test system: MDA-MB-231
PC-3 = test system: PC-3

Row | Compound | GI50 (UACC-62) | GI50 (HOP-92) | GI50 (EKVX) | GI50 (786-0) | GI50 (IGROV-1) | GI50 (HCT-116) | GI50 (HCT-15) | GI50 (NCI-H460) | GI50 (RPMI-8226) | GI50 (LXFL 529) | GI50 (OVCAR-4) | GI50 (SF-295) | GI50 (HOP-62) | GI50 (SK-MEL-28) | GI50 (SF-539) | GI50 (A498) | GI50 (SNB-19) | GI50 (DU-145) | GI50 (MDA-MB-231) | GI50 (PC-3)
1 | O=NN(CCCl)C(=O)NCc1ccc[n+]([O-])c1 | 11.7 µM (inactive) | 15.8 µM (inactive) | > 100 µM (inactive) | 35.7 µM (inactive) | > 100 µM (inactive) | > 100 µM (inactive) | > 100 µM | 45.7 µM (inactive) | > 100 µM (inactive) | > 100 µM (inactive) | > 100 µM (inactive) | 64.1 µM (inactive) | 54 µM (inactive) | > 100 µM (inactive) | 43.9 µM (inactive) |  |  |  |  | 
2 | COC(=O)CCC1CCc2c(OC)ccc(O)c2C1=O (stereo not drawn) | > 100 µM (inactive) |  | > 100 µM (inactive) | > 100 µM (inactive) | > 100 µM (inactive) | > 100 µM (inactive) | > 100 µM | > 100 µM (inactive) | > 100 µM (inactive) | > 100 µM (inactive) | > 100 µM (inactive) | > 100 µM (inactive) | > 100 µM (inactive) | > 100 µM (inactive) | > 100 µM (inactive) | > 100 µM (inactive) | > 100 µM (inactive) |  |  | 
3 | COC(=O)c1cc2c3ccccc3n(C(C)=O)c2cn1 | 76.9 µM (inactive) | 49 µM (inactive) | 51.2 µM (inactive) | > 100 µM (inactive) | 40.4 µM (inactive) | > 100 µM (inactive) | 68.9 µM | 35.6 µM (inactive) | 45.4 µM (inactive) | 66.4 µM (inactive) | 60 µM (inactive) | > 100 µM (inactive) | 59.6 µM (inactive) | > 100 µM (inactive) | > 100 µM (inactive) |  | > 100 µM (inactive) |  |  | 
4 | Cc1cn(C2CC3C(COCN3O)O2)c(=O)[nH]c1=O (stereo not drawn) | > 100 µM (inactive) |  | > 100 µM (inactive) | > 100 µM (inactive) | > 100 µM (inactive) | > 100 µM (inactive) | > 100 µM | > 100 µM (inactive) | > 100 µM (inactive) | > 100 µM (inactive) | > 100 µM (inactive) | > 100 µM (inactive) | > 100 µM (inactive) | > 100 µM (inactive) | > 100 µM (inactive) |  | > 100 µM (inactive) |  |  | 
5 | CC1=CC(=O)CCC2(C)C1CC[C@@H]2OC=O (stereo partly drawn) | > 100 µM (inactive) | > 100 µM (inactive) | > 100 µM (inactive) | > 100 µM (inactive) | > 100 µM (inactive) | > 100 µM (inactive) |  | > 100 µM (inactive) | > 100 µM (inactive) | > 100 µM (inactive) | > 100 µM (inactive) | > 100 µM (inactive) | 53.6 µM (inactive) | > 100 µM (inactive) | > 100 µM (inactive) |  | > 100 µM (inactive) |  |  | 
6 | CC1=CCC2(C#N)CCC1C2=O (stereo not drawn) | > 100 µM (inactive) |  | > 100 µM (inactive) | > 100 µM (inactive) | > 100 µM (inactive) | > 100 µM (inactive) | > 100 µM | > 100 µM (inactive) | > 100 µM (inactive) | > 100 µM (inactive) | > 100 µM (inactive) | > 100 µM (inactive) | > 100 µM (inactive) |  | > 100 µM (inactive) | > 100 µM (inactive) | > 100 µM (inactive) |  |  | 
7 | Cc1cccc(C2SCc3nc4ccccc4n32)c1 (stereo not drawn) | 27.8 µM (inactive) | 14.7 µM (inactive) | 18.9 µM (inactive) | 25.1 µM (inactive) | 24.5 µM (inactive) | 17.7 µM (inactive) | 18.6 µM | 27.7 µM (inactive) | 13.9 µM (inactive) | 25.2 µM (inactive) | 28.2 µM (inactive) | 30.8 µM (inactive) | 23.6 µM (inactive) | 26.1 µM (inactive) | 33.8 µM (inactive) |  |  |  |  | 
8 | O=C1c2ccccc2C(=O)[C@@]23O[C@@]12C1(Oc2cccc4cccc(c24)O1)[C@@H]1O[C@@H]1[C@@H]3O | 14.2 µM (inactive) | 15.8 µM (inactive) | 20.5 µM (inactive) | 4.23 µM (inactive) | 13.6 µM (inactive) | 4.4 µM (inactive) | 5.01 µM | 9.86 µM (inactive) | 2.68 µM (inactive) |  | 4.19 µM (inactive) | 12.9 µM (inactive) | 12.6 µM (inactive) | 20.6 µM (inactive) | 2.64 µM (inactive) | 26.9 µM (inactive) | 13.3 µM (inactive) | 14.6 µM (inactive) | 14.8 µM (inactive) | 15.2 µM (inactive)
9 | CC(=O)c1ccc(Nc2c3c(nc4ccccc24)CCCC3)cc1 | 17.1 µM (inactive) | 21.1 µM (inactive) | 28 µM (inactive) | 25.7 µM (inactive) | 3.79 µM (inactive) | 13.2 µM (inactive) | 13.7 µM | 17.5 µM (inactive) | 27.6 µM (inactive) |  | 41.9 µM (inactive) | 11.2 µM (inactive) | 10.3 µM (inactive) | 50.7 µM (inactive) | 26.6 µM (inactive) | > 31.8 µM (inactive) | 20.2 µM (inactive) | 20 µM (inactive) | 19.6 µM (inactive) | 41.1 µM (inactive)
10 | Cc1cccc2cc3ccc4ccccc4c3cc12 | 80.9 µM (inactive) | 98.9 µM (inactive) | 21.2 µM (inactive) | 41.7 µM (inactive) | 55 µM (inactive) | 30 µM (inactive) | 47 µM | 25.4 µM (inactive) | 34.6 µM (inactive) |  | 47.3 µM (inactive) | 40.8 µM (inactive) | 68.4 µM (inactive) | > 100 µM (inactive) | 74 µM (inactive) | 44.2 µM (inactive) | 76.2 µM (inactive) | 66.5 µM (inactive) | 51.3 µM (inactive) | 66.5 µM (inactive)
11 | C=CCn1cnc2c(O)nc(Nc3ccccc3)nc21 | > 100 µM (inactive) | > 100 µM (inactive) | > 100 µM (inactive) | > 100 µM (inactive) | > 100 µM (inactive) | > 100 µM (inactive) | > 100 µM | > 100 µM (inactive) | > 100 µM (inactive) |  | > 100 µM (inactive) | > 100 µM (inactive) | > 100 µM (inactive) | > 100 µM (inactive) | > 100 µM (inactive) | > 100 µM (inactive) | > 100 µM (inactive) | > 100 µM (inactive) | > 100 µM (inactive) | > 100 µM (inactive)
12 | N#Cc1cc2c(cc1Cl)Sc1nccn1S2(=O)=O | 2.55 µM (inactive) | 4.93 µM (inactive) | 14.5 µM (inactive) | 14.8 µM (inactive) | 6.38 µM (inactive) | 1.79 µM (inactive) | 1.25 µM | 9.53 µM (inactive) | 2.92 µM (inactive) |  | 6.05 µM (inactive) | 4.31 µM (inactive) | 3.38 µM (inactive) | 2.32 µM (inactive) | 3.7 µM (inactive) | 18.3 µM (inactive) | 8.2 µM (inactive) | 2.33 µM (inactive) | 3.59 µM (inactive) | 4 µM (inactive)
13 | CC1(C)OC(=C(C#N)C#N)C(C#N)=C1/C=C/c1ccncc1 | 1.95 µM (inactive) | 2.42 µM (inactive) | 2.32 µM (inactive) | 2.03 µM (inactive) | 2.17 µM (inactive) | 1.91 µM (inactive) | 2.03 µM | 6.53 µM (inactive) | 1.65 µM (inactive) |  | 2.96 µM (inactive) | 2.24 µM (inactive) | 1.66 µM (inactive) | 2.39 µM (inactive) | 1.8 µM (inactive) | 7.69 µM (inactive) | 2.59 µM (inactive) | 2.53 µM (inactive) | 2.16 µM (inactive) | 2.29 µM (inactive)
14 | N/C(=N\c1ccc(Cl)cc1)NS(=O)(=O)c1ccc(-c2ncccc2C(F)(F)F)s1 | 11.3 µM (inactive) | 14.7 µM (inactive) | 4.61 µM (inactive) | 17.1 µM (inactive) | 12 µM (inactive) | 14 µM (inactive) | 16.6 µM | 13.1 µM (inactive) | 17.3 µM (inactive) |  | 18.5 µM (inactive) | 16.1 µM (inactive) | 18.2 µM (inactive) | 16.9 µM (inactive) | 25.8 µM (inactive) | 16.7 µM (inactive) | 18.6 µM (inactive) | 17.1 µM (inactive) | 13.9 µM (inactive) | 13.1 µM (inactive)
15 | C=CCOc1ccccc1/N=N/C(C#N)=N\Nc1ccccc1OCC=C | > 100 µM (inactive) | 62.1 µM (inactive) | > 100 µM (inactive) | > 100 µM (inactive) | > 100 µM (inactive) | > 100 µM (inactive) | > 100 µM | > 100 µM (inactive) | > 100 µM (inactive) |  | > 100 µM (inactive) | > 100 µM (inactive) | > 100 µM (inactive) | > 100 µM (inactive) | > 100 µM (inactive) | > 100 µM (inactive) | > 100 µM (inactive) | > 100 µM (inactive) | > 100 µM (inactive) | > 100 µM (inactive)
16 | C=CCCC1CCCCC/C1=N\N(C)C (stereo not drawn) | > 100 µM (inactive) | > 100 µM (inactive) | > 100 µM (inactive) | > 100 µM (inactive) | > 100 µM (inactive) | > 100 µM (inactive) | > 100 µM | > 100 µM (inactive) | > 100 µM (inactive) |  | > 100 µM (inactive) | > 100 µM (inactive) | > 100 µM (inactive) | > 100 µM (inactive) | > 100 µM (inactive) | > 100 µM (inactive) | > 100 µM (inactive) | > 100 µM (inactive) | > 100 µM (inactive) | > 100 µM (inactive)

— ChEMBL document CHEMBL1201862, “PubChem BioAssay data set” (2004)
